Measurements published in the supplement of paper PMC6965134.
± gives the standard deviation of the averaged measurements. Blank lines part the entries; values can stand above or below the molecule they belong to.

Assay: TIMS collisional cross section (CCS, N2) of the lipid ion; higher = larger ion cross section
Conditions: ionization mode: negative, one isomer drawn
Protocol: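 Lipid extracts of human plasma (NIST SRM 1950), mouse liver or HeLa cells were separated by nanoflow C18 LC (30 min gradient) and analysed by TIMS-PASEF on a timsTOF Pro. Ion mobility was calibrated with the Agilent tuning mix (negative mode ions) and converted to collisional cross sections (Mason–Schamp, N2).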

[1] = sample type: Human plasma, ion (formula + adduct): [C40H78NO7P-CH3] 1-
[2] = sample type: Human plasma, ion (formula + adduct): [C44H80NO7P+AcO] 1-
[3] = sample type: Human plasma, ion (formula + adduct): [C46H84NO7P-CH3] 1-
[4] = sample type: Mouse Liver, ion (formula + adduct): [C46H84NO7P-CH3] 1-
[5] = sample type: Human plasma, ion (formula + adduct): [C46H82NO7P+HCOO] 1-
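Note: lipids from MTBE extraction, five replicate injections per sample, 100 ms TIMS ramp spanning 0.6–1.95 Vs/cm², lipid identity assigned from PASEF MS/MS spectra.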

Structure (SMILES): CC/C=C\C/C=C\C/C=C\C/C=C\C/C=C\CCCC(=O)O[C@H](COCCCCCCCCCCCCCCCC)COP(=O)([O-])OCC[N+](C)(C)C [PC O- 16:0@_20:5]
TIMS collisional cross section [2]: 298.5 Å²

Structure (SMILES): CC/C=C\C/C=C\C/C=C\C/C=C\C/C=C\C/C=C\CCC(=O)O[C@H](COCCCCCCCCCCCCCCCC)COP(=O)([O-])OCC[N+](C)(C)C [PC O- 16:0@_22:6]
TIMS collisional cross section [5]: 298.4 Å²
TIMS collisional cross section (sample type: Mouse Liver, ion (formula + adduct): [C46H82NO7P+HCOO] 1-): 296.7 Å²

Structure (SMILES): CC/C=C\C/C=C\C/C=C\C/C=C\CCCCCCC(=O)O[C@H](COCCCCCCCC/C=C\CCCCCC)COP(=O)([O-])OCC[N+](C)(C)C [PC O- 16:1@_20:4]
TIMS collisional cross section [2]: 296.2 Å²
TIMS collisional cross section (sample type: Human plasma, ion (formula + adduct): [C44H80NO7P-H] 1-): 278.5 Å²
TIMS collisional cross section (sample type: Mouse Liver, ion (formula + adduct): [C44H80NO7P+HCOO] 1-): 292.2 Å²
TIMS collisional cross section (sample type: Mouse Liver, ion (formula + adduct): [C44H80NO7P-CH3] 1-): 275.7 Å²

Structure (SMILES): CC/C=C\C/C=C\C/C=C\C/C=C\CCCCCCC(=O)O[C@H](COCCCCCCCC/C=C\CCCCCC)COP(=O)([O-])OCC[N+](C)(C)C [PC O- 16:1_20:4]
TIMS collisional cross section (sample type: Human plasma, ion (formula + adduct): [C44H80NO7P+HCOO] 1-): 292.2 Å²

Structure (SMILES): CC/C=C\C/C=C\C/C=C\C/C=C\C/C=C\C/C=C\CCC(=O)O[C@H](COCCCCCCCCCCCCCCCCCC)COP(=O)([O-])OCC[N+](C)(C)C [PC O- 18:0@_22:6]
TIMS collisional cross section (sample type: Human plasma, ion (formula + adduct): [C48H86NO7P+HCOO] 1-): 303.2 Å²

Structure (SMILES): CCCCC/C=C\C/C=C\C/C=C\C/C=C\CCCC(=O)O[C@H](COCCCCCCCC/C=C\CCCCCCCC)COP(=O)([O-])OCC[N+](C)(C)C [PC O- 18:1@_20:4]
TIMS collisional cross section (sample type: Human plasma, ion (formula + adduct): [C46H84NO7P+HCOO] 1-): 297.5 ± 0.42 Å²
TIMS collisional cross section [3]: 282.5 Å²
TIMS collisional cross section (sample type: Mouse Liver, ion (formula + adduct): [C46H84NO7P+HCOO] 1-): 296.1 Å²
TIMS collisional cross section [4]: 282.5 Å²

Structure (SMILES): CC/C=C\C/C=C\C/C=C\C/C=C\C/C=C\CCCC(=O)O[C@H](CO/C=C\CCCCCCCCCCCCCC)COP(=O)([O-])OCC[N+](C)(C)C [PC P- 16:0@_20:5]
TIMS collisional cross section (sample type: Human plasma, ion (formula + adduct): [C44H78NO7P+HCOO] 1-): 292.2 Å²
TIMS collisional cross section (sample type: Human plasma, ion (formula + adduct): [C44H78NO7P-CH3] 1-): 275.1 Å²

Structure (SMILES): CCCCC/C=C\C/C=C\C/C=C\C/C=C\CCCCCC(=O)O[C@H](CO/C=C\CCCCCCCCCCCCCC)COP(=O)([O-])OCC[N+](C)(C)C [PC P- 16:0@_22:4]
TIMS collisional cross section [3]: 282.5 Å²

Structure (SMILES): CC/C=C\C/C=C\C/C=C\C/C=C\C/C=C\C/C=C\CCC(=O)O[C@H](CO/C=C\CCCCCCCCCCCCCC)COP(=O)([O-])OCC[N+](C)(C)C [PC P- 16:0@_22:6]
TIMS collisional cross section (sample type: Human plasma, ion (formula + adduct): [C46H80NO7P+HCOO] 1-): 296.7 Å²
TIMS collisional cross section (sample type: Human plasma, ion (formula + adduct): [C46H80NO7P-CH3] 1-): 280.2 Å²
TIMS collisional cross section (sample type: Mouse Liver, ion (formula + adduct): [C46H80NO7P-CH3] 1-): 279.6 Å²

Structure (SMILES): CCCCCCCCCCCCCC/C=C\OC[C@H](COP(=O)([O-])OCC[N+](C)(C)C)OC(=O)CCCCCCCCCCCCCCC [PC P- 16:0_16:0]
TIMS collisional cross section (sample type: Human plasma, ion (formula + adduct): [C40H80NO7P+HCOO] 1-): 287.8 Å²
TIMS collisional cross section (sample type: Mouse Liver, ion (formula + adduct): [C40H80NO7P-CH3] 1-): 267.55 ± 2 Å²

Structure (SMILES): CC/C=C\C/C=C\C/C=C\C/C=C\C/C=C\CCCC(=O)O[C@H](CO/C=C\CCCCCCCCCCCCCCCC)COP(=O)([O-])OCC[N+](C)(C)C [PC P- 18:0@_20:5]
TIMS collisional cross section [5]: 296.1 Å²

Structure (SMILES): CC/C=C\C/C=C\C/C=C\C/C=C\C/C=C\C/C=C\CCC(=O)O[C@H](CO/C=C\CCCCCCCCCCCCCCCC)COP(=O)([O-])OCC[N+](C)(C)C [PC P- 18:0@_22:6]
TIMS collisional cross section (sample type: Mouse Liver, ion (formula + adduct): [C48H84NO7P-CH3] 1-): 285.8 Å²

The next lines start with the values.

TIMS collisional cross section [1]: 265.6 Å²
Structure (SMILES): CCCCC/C=C\C/C=C\CCCCCCCC(=O)O[C@H](COCCCCCCCCCCCCCC)COP(=O)([O-])OCC[N+](C)(C)C [PC O- 14:0@_18:2]

TIMS collisional cross section (sample type: Human plasma, ion (formula + adduct): [C42H78NO7P-CH3] 1-): 270.6 Å²
Structure (SMILES): CCCCC/C=C\C/C=C\C/C=C\C/C=C\CCCC(=O)O[C@H](COCCCCCCCCCCCCCC)COP(=O)([O-])OCC[N+](C)(C)C [PC O- 14:0@_20:4]

TIMS collisional cross section (sample type: Human plasma, ion (formula + adduct): [C43H80NO7P-H] 1-): 276.3 Å²
Structure (SMILES): CCCCC/C=C\C/C=C\C/C=C\C/C=C\CCCC(=O)O[C@H](COCCCCCCCCCCCCCCC)COP(=O)([O-])OCC[N+](C)(C)C [PC O- 15:0@_20:4]

TIMS collisional cross section (sample type: Human plasma, ion (formula + adduct): [C38H78NO7P+HCOO] 1-): 282.2 Å²
Structure (SMILES): CCCCCCCCCCCCCCCCOC[C@H](COP(=O)([O-])OCC[N+](C)(C)C)OC(=O)CCCCCCCCCCCCC [PC O- 16:0@_14:0]

TIMS collisional cross section (sample type: Human plasma, ion (formula + adduct): [C42H82NO7P+HCOO] 1-): 288.8 Å²
TIMS collisional cross section (sample type: Human plasma, ion (formula + adduct): [C42H82NO7P-CH3] 1-): 271.8 Å²
TIMS collisional cross section (sample type: Mouse Liver, ion (formula + adduct): [C42H82NO7P+HCOO] 1-): 290 Å²
Structure (SMILES): CCCCC/C=C\C/C=C\CCCCCCCC(=O)O[C@H](COCCCCCCCCCCCCCCCC)COP(=O)([O-])OCC[N+](C)(C)C [PC O- 16:0@_18:2]

TIMS collisional cross section (sample type: Mouse Liver, ion (formula + adduct): [C44H88NO7P-CH3] 1-): 279.7 Å²
Structure (SMILES): CCCCCCCCCC/C=C\CCCCCCCC(=O)O[C@H](COCCCCCCCCCCCCCCCC)COP(=O)([O-])OCC[N+](C)(C)C [PC O- 16:0@_20:1]

TIMS collisional cross section (sample type: Human plasma, ion (formula + adduct): [C44H82NO7P+AcO] 1-): 299.9 Å²
TIMS collisional cross section (sample type: Human plasma, ion (formula + adduct): [C44H82NO7P+HCOO] 1-): 293.3 Å²
TIMS collisional cross section (sample type: Mouse Liver, ion (formula + adduct): [C44H82NO7P+HCOO] 1-): 292.7 Å²
Structure (SMILES): CCCCC/C=C\C/C=C\C/C=C\C/C=C\CCCC(=O)O[C@H](COCCCCCCCCCCCCCCCC)COP(=O)([O-])OCC[N+](C)(C)C [PC O- 16:0@_20:4]

TIMS collisional cross section [3]: 281.3 Å²
TIMS collisional cross section [4]: 280.2 Å²
Structure (SMILES): CC/C=C\C/C=C\C/C=C\C/C=C\C/C=C\CCCCCC(=O)OC(COCCCCCCCCCCCCCCCC)COP(=O)([O-])OCC[N+](C)(C)C (configuration not stated) [PC O- 16:0@_22:5]

TIMS collisional cross section (sample type: Human plasma, ion (formula + adduct): [C40H82NO7P+HCOO] 1-): 287.8 Å²
Structure (SMILES): CCCCCCCCCCCCCCCCOC[C@H](COP(=O)([O-])OCC[N+](C)(C)C)OC(=O)CCCCCCCCCCCCCCC [PC O- 16:0_16:0]

TIMS collisional cross section (sample type: Human plasma, ion (formula + adduct): [C42H80NO7P-CH3] 1-): 272.4 Å²
TIMS collisional cross section (sample type: Mouse Liver, ion (formula + adduct): [C42H80NO7P-CH3] 1-): 272.4 Å²
Structure (SMILES): CCCCC/C=C\C/C=C\CCCCCCCC(=O)O[C@H](COCCCCCCCC/C=C\CCCCCC)COP(=O)([O-])OCC[N+](C)(C)C [PC O- 16:1@_18:2]

TIMS collisional cross section (sample type: Human plasma, ion (formula + adduct): [C42H86NO7P+HCOO] 1-): 293.5 Å²
Structure (SMILES): CCCCCCCCCCCCCCCCCCOC[C@H](COP(=O)([O-])OCC[N+](C)(C)C)OC(=O)CCCCCCCCCCCCCCC [PC O- 18:0@_16:0]

TIMS collisional cross section (sample type: Mouse Liver, ion (formula + adduct): [C44H86NO7P-CH3] 1-): 276.8 Å²
Structure (SMILES): CCCCC/C=C\C/C=C\CCCCCCCC(=O)O[C@H](COCCCCCCCCCCCCCCCCCC)COP(=O)([O-])OCC[N+](C)(C)C [PC O- 18:0@_18:2]

TIMS collisional cross section (sample type: Human plasma, ion (formula + adduct): [C46H86NO7P+HCOO] 1-): 299 Å²
Structure (SMILES): CCCCC/C=C\C/C=C\C/C=C\C/C=C\CCCC(=O)O[C@H](COCCCCCCCCCCCCCCCCCC)COP(=O)([O-])OCC[N+](C)(C)C [PC O- 18:0@_20:4]

TIMS collisional cross section (sample type: Human plasma, ion (formula + adduct): [C42H84NO7P+HCOO] 1-): 291.1 Å²
Structure (SMILES): CCCCCCCC/C=C\CCCCCCCCOC[C@H](COP(=O)([O-])OCC[N+](C)(C)C)OC(=O)CCCCCCCCCCCCCCC [PC O- 18:1@_16:0]

TIMS collisional cross section (sample type: Human plasma, ion (formula + adduct): [C48H88NO7P+HCOO] 1-): 302.3 Å²
Structure (SMILES): CC/C=C\C/C=C\C/C=C\C/C=C\CCCCCCC(=O)O[C@H](COCCCCCCCCCC/C=C\CCCCCCCC)COP(=O)([O-])OCC[N+](C)(C)C [PC O- 20:1@_20:4]

TIMS collisional cross section [1]: 267.3 Å²
Structure (SMILES): CCCCCCCC/C=C\CCCCCCCC(=O)O[C@H](CO/C=C\CCCCCCCCCCCC)COP(=O)([O-])OCC[N+](C)(C)C [PC P- 14:0@_18:1]

TIMS collisional cross section (sample type: Mouse Liver, ion (formula + adduct): [C40H78NO7P+OAcO] 1-): 283.6 Å²
Structure (SMILES): CCCCCC/C=C\CCCCCCCC(=O)O[C@H](CO/C=C\CCCCCCCCCCCCCC)COP(=O)([O-])OCC[N+](C)(C)C [PC P- 16:0@_16:1]

TIMS collisional cross section (sample type: Human plasma, ion (formula + adduct): [C46H88NO7P-CH3] 1-): 285.4 Å²
Structure (SMILES): CCCCC/C=C\C/C=C\CCCCCCCC(=O)O[C@H](CO/C=C\CCCCCCCCCCCCCCCCCC)COP(=O)([O-])OCC[N+](C)(C)C [PC P- 20:0@_18:2]
